Ends that are not written are not given here.
What was measured:
[1] = solubility to ultra-pure water; assay type: physicochemical; conditions: room temperature
Description: In this Example, Ce4, Ce9, Ce41 and Ce59 developed in the aforementioned Examples were each dissolved in ultra-pure water and the degrees of solubility of them to ultra-pure water were computationally obtained.
Ce4, Ce9, Ce41 and Ce59 having the aforementioned amino acid sequences were chemically synthesized and each dissolved in ultra-pure water. To describe more specifically, the peptides chemically synthesized were each added to ultra-pure water of 250 μL and stirred by pipetting using a micropipette a sufficient number of times and allowed to stand still at room temperature. When undissolved residue was not present, the peptide was further added and the same operation was repeated. When undissolved residue was present, the sample was allowed to stand still for 10 minutes, again stirred by pipetting using a micropipette a sufficient number of times and allowed to stand still at room temperature. After the operation in this step was repeated further twice, concentration was measured by NanoPhotometer NP80 manufactured by IMPLEN to evaluate the degrees of solubility to ultra-pure water.

[2] = system: wild-type SARS-COV-2
[3] = solubility to 50 mM HEPES buffer solution (pH 8.0); assay type: physicochemical; conditions: room temperature
Description: In this Example, Ce113, Ce149, Ce172, Ce173 and Ce174 developed in the aforementioned Examples were each dissolved in 50 mM HEPES buffer solution (pH 8.0) and the degrees of solubility of them to 50 mM HEPES buffer solution (pH 8.0) were computationally obtained.
Ce113, Ce149, Ce172, Ce173 and Ce174 having the aforementioned amino acid sequences were chemically synthesized and each dissolved in a 50 mM HEPES buffer solution (pH 8.0). To describe more specifically, the peptides chemically synthesized were each added to the 50 mM HEPES buffer solution (pH 8.0) of 250 μL and stirred by pipetting using a micropipette a sufficient number of times and allowed to stand still at room temperature. When undissolved residue was not present, the peptide was further added and the same operation was repeated. When undissolved residue was present, the sample was allowed to stand still for 10 minutes, stirred by pipetting using a micropipette a sufficient number of times and allowed to stand still at room temperature. The operation of this step was repeated further twice and then concentration was measured by NanoPhotometer NP80 manufactured by IMPLEN to evaluate the degrees of solubility to the 50 mM HEPES buffer solution (pH 8.0).

[4] = target: receptor binding domain (RBD) in wild-type SARS-COV-2 (Severe acute respiratory syndrome coronavirus 2, UniProt P0DTC2); conditions: result in words (binding rate and degree of dissociation)

## DKEWILQKIYEIMRKLDEDGHAEASMRVSDLIYEFMKKD [Ce4]
[1]
  solubility thermodynamic at 30 min: 4.4 mM

## CC[C@H](C)[C@H](NC(=O)[C@H](CC(C)C)NC(=O)[C@H](CC(=O)O)NC(=O)[C@H](CO)NC(=O)[C@@H](NC(=O)[C@H](CCCNC(=N)N)NC(=O)[C@H](CCSC)NC(=O)[C@H](CO)NC(=O)[C@H](C)NC(=O)[C@H](CCC(=O)O)NC(=O)[C@H](C)NC(=O)[C@H](Cc1c[nH]cn1)NC(=O)CNC(=O)[C@H](CC(C)C)NC(=O)[C@H](CCC(=O)O)NC(=O)[C@H](CC(=O)O)NC(=O)[C@H](CC(C)C)NC(=O)[C@H](CC(C)C)NC(=O)[C@H](CCCNC(=N)N)NC(=O)[C@H](CCSC)NC(=O)[C@@H](NC(=O)[C@H](CCC(=O)O)NC(=O)[C@H](Cc1ccc(O)cc1)NC(=O)[C@@H](NC(=O)[C@H](CCCCN)NC(=O)[C@H](CCC(N)=O)NC(=O)[C@H](CC(C)C)NC(=O)[C@@H](NC(=O)[C@H](Cc1c[nH]c2ccccc12)NC(=O)[C@H](CCC(=O)O)NC(=O)[C@H](CCCCN)NC(=O)[C@@H](N)CC(=O)O)[C@@H](C)CC)[C@@H](C)CC)[C@@H](C)CC)C(C)C)C(=O)N[C@@H](Cc1ccc(O)cc1)C(=O)N[C@@H](CCC(=O)O)C(=O)N[C@@H](Cc1ccccc1)C(=O)N[C@@H](CCSC)C(=O)N[C@@H](CCCCN)C(=O)N[C@@H](CCCCN)C(=O)N[C@@H](CC(=O)O)C(=O)O [Ce1]
[2]
  IC50: 1.5 nM

## DKEWILQKIYEIMRRLDEEGHGEASLRVSDLIYEFMKRD [Ce59]
[1]
  solubility thermodynamic at 30 min: 6.1 mM

## DKEWILYKIYEIMVRLDEEGHGEASLMVSDLIYEFMKRD [Ce149]
[3]
  solubility thermodynamic at 30 min: 1300 µM

## DKLWILQKIYEIMQRLDEEGHGEASLMVSDLIYEFMKRD [Ce173]
[3]
  solubility thermodynamic at 30 min: 1500 µM

## DKEWILQKIYEIMRRLDEEGHAEASMRVSDLIYEFMKKD [Ce9]
[1]
  solubility thermodynamic at 30 min: 5.2 mM
[2]
  IC50: 0.4 nM

## CC[C@H](C)[C@H](NC(=O)[C@H](CC(C)C)NC(=O)[C@H](CC(=O)O)NC(=O)[C@H](CO)NC(=O)[C@@H](NC(=O)[C@H](CCCNC(=N)N)NC(=O)[C@H](CCSC)NC(=O)[C@H](CO)NC(=O)[C@H](C)NC(=O)[C@H](CCC(=O)O)NC(=O)[C@H](C)NC(=O)[C@H](Cc1c[nH]cn1)NC(=O)CNC(=O)[C@H](CC(C)C)NC(=O)[C@H](CCC(=O)O)NC(=O)[C@H](CC(=O)O)NC(=O)[C@H](CC(C)C)NC(=O)[C@H](CC(C)C)NC(=O)[C@H](CCCNC(=N)N)NC(=O)[C@H](CCSC)NC(=O)[C@@H](NC(=O)[C@H](CCC(=O)O)NC(=O)[C@H](Cc1ccc(O)cc1)NC(=O)[C@@H](NC(=O)[C@H](CCCCN)NC(=O)[C@H](CCC(N)=O)NC(=O)[C@H](CC(C)C)NC(=O)[C@@H](NC(=O)[C@H](Cc1c[nH]c2ccccc12)NC(=O)[C@H](CCC(=O)O)NC(=O)[C@H](CCCCN)NC(=O)[C@@H](N)CC(=O)O)[C@@H](C)CC)[C@@H](C)CC)[C@@H](C)CC)C(C)C)C(=O)N[C@@H](Cc1ccc(O)cc1)C(=O)N[C@@H](CCC(=O)O)C(=O)N[C@@H](Cc1ccccc1)C(=O)N[C@@H](CCSC)C(=O)N[C@@H](CCCCN)C(=O)N[C@@H](CCCCN)C(=O)NCC(=O)O [Ca1, reference compound]
[2]
  IC50: 107 nM

## DKLWILQKIYEIMVRLDEEGHGEASLMVSDLIYEFMKRD [Ce172]
[3]
  solubility thermodynamic at 30 min: 1100 µM

## DKEWILQKIYEIMQRLDEEGHGEASLMVSDLIYEFMKRD [Ce113]
[3]
  solubility thermodynamic at 30 min: 2500 µM

## DKEWILQKIYEIMRRLDEEGHGEASLRVSDLIYEFMKKD [Ce41]
[1]
  solubility: 6.1 mM
[4]
  binding activity to the receptor binding domain (RBD): high binding activity

## DKEWILYKIYEIMQRLDEEGHGEASLMVSDLIYEFMKRD [Ce174]
[3]
  solubility thermodynamic at 30 min: 1600 µM

Reference: patent publication US20240309059A1, “PEPTIDE HAVING ANTI-VIRAL ACTIVITY, ANTI-VIRAL AGENT COMPRISING SAID PEPTIDE, AND METHOD FOR PRODUCING SAID ANTI-VIRAL AGENT” (National University Corporation Tokyo Medical and Dental …, priority 2021, published 2024)
